Counter-ions that a name gives are not always drawn.
Legend:
[1] = molecular target: iron-loaded abeta42 templates (Homo sapiens, UniProt P05067); assay: Binding of proteins to iron-loaded abeta42 templates; conditions: SDS-PAGE
Text: FIG. 46 illustrates an example involving the identification of proteins that bind to iron-loaded abeta42 templates. The iron-loaded abeta42 templates are combined with known and unknown cell extracts (CE) and subjected to CPA, as described herein. To determine which proteins successfully bind the templates, the final template complexes are suspended in denaturing sample buffer, boiled, and loaded into SDS-PAGE gel. The gels are then stained with coomassie blue or silver stain in order to visualize the binding proteins. […] In the negative control, no significant binding is observed when the proteins are incubated in the absence of the templates.
In experiments such as these, known and unknown cell extract proteins that are used for the complex formation with the aggregates are diluted in PBS to a 1 mg/ml concentration and stored at −70° C. as 50 μl aliquots. These samples are thawed on ice and centrifuged (13000 rpm, 15 min, 4° C.) to remove any precipitation. The supernatant containing soluble proteins is used to form complexes with the aggregates. Various proteins are screened against the iron loaded abeta42 aggregates for examining their binding. Binding experiments are performed in PBS (50 μl, pH 7.3) containing 6.0 μg of iron loaded abeta 42 aggregates and 1.0 μg of each protein. The mixture is incubated at 37° C. for 1 hr. After that, the samples are centrifuged (9000 rpm, 9 min, 15° C.) and the complexes are washed five times with 100 μl PBST (PBS containing 0.05% of Tween 20). After each wash, the supernatant is discarded and the complexes are transferred to a new tube to avoid any carry-over of the proteins. The final complexes are suspended in 20 μl of PBS to which 5.0 μl of denaturing sample solublising buffer (Bio Rad, CA, USA) is added. After boiling the samples for 10 min they are loaded into 4-20% SDS-PAGE (Cambrex Bio Sci, ME, USA). The proteins in the gels are detected using coomassie blue or silver stain (Owl silver stain, Pierce, Ill., USA). All the binding and the CPA experiments are carried out in low protein bind 1.7 ml centrifuge tubes (Effentorf, Calif.).

[2] = system: plaque induced chronic inflammation; assay: Drug treatment of mice with plaque induced chronic inflammation; conditions: 5-10 mg/kg per day orally, 8 weeks
[3] = system: CO, lipid and cholesterol aggregates formations; assay: Effect of PGN27 on CO, lipid and cholesterol aggregates formation
[4] = system: CP aggregates formation; assay: Screen of known drugs for prevention of CP aggregates formation; conditions: for CP aggregates formation, dose dependence: sodium phosphate dibasic and calcium chloride 4 mM each
[5] = system: CP aggregates; assay: Binding of PGN27 to CP aggregates and cyclic plaque assembly (CPA)
[6] = system: plaque accumulation in the heart tissues; assay: Drug treatment of asymptomatic induced atherosclerotic mice, histochemical analysis of heart tissues; conditions: 5-10 mg/kg per day orally, 8 weeks
[7] = system: thrombus, generated from the CP-Chl aggregates; assay: Effect of PGN27 on dissolution of thrombus; conditions: 2 mM, 1 hr
[8] = system: CO aggregates; assay: Binding of proteins with calcium containing aggregates; conditions: 2 μg protein, 37° C., 1 hr
Procedure: (§1) The Proteins used for binding with the aggregates are diluted first in the PBS to make 1 mg/ml concentration and then stored at −20° C. as 50 μl aliquots. These samples are then thawed on ice and centrifuged (10,000 rpm, 10 min, 4° C.) to remove any precipitation and the supernatant containing only the soluble proteins are used for binding studies. To start with, for identification of proteins binding with calcium containing aggregates, a number of proteins are screened individually with the aggregates. Binding experiment is performed in 100 μl reaction (50 μl PBS buffer and 50 μl of individual aggregates) containing 2 μg of protein and the mixtures are incubated at 37° C. for 1 hr. For control experiments, protein (2 μg) is mixed in 100 μl PBS without aggregates. After the binding, the mixture is centrifuged (2500 rpm, 2 min, 20° C.) and the pellet is washed four times with 200 μl PBST (Tween 20, 0.05%). After each wash the supernatant is discarded and the complexes are transferred to a new microfuge tube to avoid any carry-over of the proteins. The calcium containing aggregates-protein complexes are suspended in 20 μl of PBS to which 5 μl of EDTA (25 mM final concentration) is added for solubilization of the complexes. Finally, the solublized samples are used for protein quantitation using protein estimation kit (Pierce, Ill.) and the data are used in the Microsoft Excel program to generate Graph 1 (FIG. 4). All the binding experiments and subsequent CPA experiments are carried out in low protein bind 1.7 ml centrifuge tubes (Effentorf, Calif.). For all the following binding experiments the same buffer, centrifugation and washing conditions are used.

[9] = system: CP aggregates; assay: as above; conditions: 2 μg protein, 37° C., 1 hr
Procedure: as §1

[10] = system: CP, CC, CO, and CaPPD aggregates; assay: Binding of proteins with calcium containing aggregates (any of the four); conditions: 2 μg protein, 37° C., 1 hr
Procedure: as §1, with “The calcium containing aggregates-protein complexes are suspended in 20 μl of PBS to which 5 μl of EDTA (25 mM final concentration) is added for solubilization of the complexes.” left out, “All the binding experiments and subsequent CPA experiments are carried out in low protein bind 1.7 ml centrifuge tubes (Effentorf, Calif.). For all the following binding experiments the same buffer, centrifugation and washing conditions are used.” left out

[11] = system: iron loaded abeta42 aggregates mixed with CE proteins; assay: Proteolysis of amyloid plaque complexes assembled on iron loaded abeta42 aggregates; assay type: biochemical; conditions: 20 ng protease, 37° C., 1 hr
Procedure: This example illustrates the use of the invention to evaluate the proteolytic degradation of the amyloid complexes. For example, iron loaded abeta42 aggregates are mixed with CE proteins, and the resulting template complexes are treated with five different serine proteases. More specifically, nine independent reactions are carried out with each containing 5.0 μg of the iron-loaded aggregates of abeta42 and 6.0 μg of the CE proteins. After incubation and washing, the complexes are suspended in 50 μl of PBS. The nine complexes are sub-divided into two groups, with six individual complexes comprising Group I and three complexes comprising Group II. In order to interrogate the role of the plasminogen (PLG) activation system, which is implicated in the catabolism of amyloid peptides as well as the pathobiology of amyloid diseases (Melchor J P et al, 2003; Van Nostrand W E et al, 1999; Kranenburg O, 2005), the Group II complexes are subjected to another cycle of binding with both PLG (0.5 μg) and BSA (0.5 μg) proteins. After binding and washing, the PLG and BSA bound plaques complexes are suspended in 50 μl of PBS.
For proteolysis analysis, five of the six Group I template complexes are incubated with 20 ng of each protease (plasnin, chymotrypsin, trypsin, proteinase K and urokinase). The remaining complex is used as a control without protease treatment. Among three complexes of the Group II containing PLG attached to them, one is treated with u-PA (20 ng), a second is treated with t-PA (20 ng) and the third complex is used as a control without protease treatment. All these plaque complexes are incubated at 37° C. for 1 hr and after every 15 min, the tubes are gently tapped in order to encourage mixing. After washing, both the proteases-treated and control plaque complexes are suspended in 20 μl PBS. The complexes are boiled for 10 min with sample solubilizing buffer and loaded in to 4-20% gradient SDS-PAGE. Further, the gels are processed for silver staining and the results are documented for further analysis.

[12] = system: thrombus generated from the in vitro assembled plaques complexes; assay: Thrombolytic assay with PLG cascade proteins; assay type: biochemical; conditions: thrombus from cholesterol, lipids, CP and CO complexes
Procedure: To examine this, both PLG and PLG activators are used to target these clots. Thrombolytic assays are carried out in 100 μl reaction containing thrombus, generated from 100 μl of aggregates or plaque complexes, 1 μg of PLG and 20 ng of u-PA or t-PA in PBS buffer. The reactions are incubated at 37° C. for 1 hr and after every 15 min the tubes are gently tapped to mix the contents. After 1 hr incubation, 1 ml of PBS is added to all the tubes and the samples are visually examined for dissolution of the thrombus.
The thrombus generated from the cholesterol, lipids, CP, and CO complexes are incubated separately with PLG, u-PA and t-PA to examine whether these proteins individually could dissolve the clots.
This could be due to the inhibition of u-PA by the PAI-1 thereby preventing the activation of the PLG. In the next experiment, the aggregates of CP-Cholesterol, CP-Lipids, CP-Cholesterol-Lipids, Cholesterol-Lipids, CO-Cholesterol and CO-Lipids are individually used in CPA for five cycles to assemble complexes followed by their thrombus generation.
The example depicted in FIG. 18 illustrates the dissolution of thrombi by PLG and u-PA. […] Both the clots and the dissolved complexes are further examined under microscope to confirm the visual examination (FIGS. 18a, b, c and d). The thrombus formed in the urine is also dissolved by the action of PLG and u-PA.

[13] = molecular target: T1, PLG attached to complexes of iron loaded abeta42 aggregates (Homo sapiens, UniProt P00747); assay: Activation of complex-bound PLG by u-PA or t-PA; assay type: biochemical
T1 construct: Lys-Plasminogen (PLG); purchased Enzyme Research Laboratories (IN, USA)
T1 sequence (P00747 97-810, one chain of several): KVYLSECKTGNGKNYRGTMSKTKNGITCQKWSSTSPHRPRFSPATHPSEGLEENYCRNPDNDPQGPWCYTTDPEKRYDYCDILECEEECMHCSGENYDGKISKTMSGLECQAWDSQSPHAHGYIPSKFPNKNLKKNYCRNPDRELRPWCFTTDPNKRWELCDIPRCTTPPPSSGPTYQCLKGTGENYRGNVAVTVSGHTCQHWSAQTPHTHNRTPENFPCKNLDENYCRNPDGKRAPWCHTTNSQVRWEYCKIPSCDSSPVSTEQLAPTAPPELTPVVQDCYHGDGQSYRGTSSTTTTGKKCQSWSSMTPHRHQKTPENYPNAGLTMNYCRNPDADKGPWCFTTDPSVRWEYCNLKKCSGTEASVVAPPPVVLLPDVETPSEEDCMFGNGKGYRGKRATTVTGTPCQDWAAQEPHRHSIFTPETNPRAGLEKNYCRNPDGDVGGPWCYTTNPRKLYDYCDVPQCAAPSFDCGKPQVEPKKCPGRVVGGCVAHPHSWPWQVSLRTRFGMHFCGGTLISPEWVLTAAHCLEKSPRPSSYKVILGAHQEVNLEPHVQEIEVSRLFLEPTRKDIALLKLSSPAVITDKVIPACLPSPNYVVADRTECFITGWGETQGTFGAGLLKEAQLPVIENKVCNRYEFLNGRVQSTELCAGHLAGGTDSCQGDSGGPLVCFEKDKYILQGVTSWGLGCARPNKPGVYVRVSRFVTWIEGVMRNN
Procedure: This example illustrates a method of evaluating the conformation and functionality of PLG attached to template complexes. Three groups of experiments are carried out to add the PLG at different layers of plaque complex formation. Group I includes three independent reactions containing both the PLG and BSA (0.5 μg each) that are added in the first cycle of the complex formation with the templates (5.0 μg). Group II includes three reactions to which both the PLG and BSA (0.5 μg each) are added in the first cycle of complex formation followed by another cycle of binding of the resulting complexes with the CE proteins (6.0 μg). Similarly, Group III includes three reactions each containing 5.0 μg of CE proteins and 5.0 μg of the abeta42 templates for complex formation in the first cycle of binding. The resulting complexes are subjected to another cycle of binding with both the PLG and BSA (0.5 μg each). […] After treating with the PLG activators, all the complexes are washed and finally suspended in 20 μl of PBS. After boiling the complexes for 10 min in sample solublizing buffer they are loaded into 4-20% gradient SDS-PAGE. Further, the gel is processed for silver staining and the results are documented for analysis. […]

Chain of iron-loaded abeta42 templates (P05067 672-713 limits assumed): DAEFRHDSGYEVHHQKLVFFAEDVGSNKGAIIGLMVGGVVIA

## CD: complement factor D
[1]
  Binding with iron-loaded abeta42 templates: bind with the templates

## CN(C)[C@@H]1C(O)=C(C(N)=O)C(=O)[C@@]2(O)C(O)=C3C(=O)c4c(O)cccc4[C@@](C)(O)[C@H]3C[C@@H]12 [PGN27, tetracycline hydrochloride]
[2]
  Symptoms of plaque inflammation compared to the control animal: reduced symptoms of plaque inflammation
[3]
  Inhibition of CO, lipid and cholesterol aggregates formations: did not inhibit
[4]; 5 mM drug, 5 mM sodium phosphate dibasic, 5 mM calcium chloride, 30 min 37° C.
  CP aggregates formation in the presence of antibiotic: prevented the CP aggregates formation
[4]; 0.5 and 0.25 mM drug
  CP aggregates formation, dose dependence: CP aggregates formation occurred
[4]; 4, 2 and 1 mM drug
  CP aggregates formation, dose dependence: did not show the CP aggregates formation
[5]; 2 mM, 37° C., 30 min
  Binding with the CP aggregates (colorless to yellow): specific and stable binding
[5]; CP-PGN27 complexes, four cycles of CPA, gel analysis
  Effect on binding of proteins with the CP aggregates in CPA: did not compete or affect binding of the proteins
[6]
  Plaque accumulation in heart tissues, histochemical analysis: reduced plaque accumulation
[7]
  Dissolution of the thrombus: no dissolution of the thrombus

## rhHGF: recombinant human hepatocyte growth factor
[1]
  Binding with iron-loaded abeta42 templates: bind with the templates

## FIX: coagulation factor IX
[1]
  Binding with iron-loaded abeta42 templates: bind with the templates
[8]
  Binding with the CO aggregates: detected for binding
[9]
  Binding with the CP aggregates: detectable binding

## CB: complement factor B
[1]
  Binding with iron-loaded abeta42 templates: bind with the templates

## HIN: human insulin
[10]
  Binding with any of the CP, CC, CO, CaPPD aggregates: no detectable binding
[1]
  Binding with iron-loaded abeta42 templates: no detectable binding

## chymotrypsin
[11]
  Degradation of proteins bound to the aggregates: degraded

## PLG: plasminogen
[1]
  Binding with iron-loaded abeta42 templates: bind with the templates
[12]
  Dissolution of thrombus, protein incubated separately: did not show any dissolution
[9]
  Binding with the CP aggregates: detectable binding
[13]; 25, 50, 100 ng u-PA
  Activation of PLG bound in first cycle compared to second cycle, increasing u-PA: exhibits resistance even when incubated with increased concentrations of the u-PA
[13]; u-PA (20 ng) or t-PA
  Activation of PLG bound in first cycle compared to second cycle: detectable level of resistance to activation

## trypsin
[11]
  Degradation of proteins bound to the aggregates: degraded

## C3: complement factor 3
[9]
  Binding with the CP aggregates: detectable binding

## ProS: protein S
[1]
  Binding with iron-loaded abeta42 templates: bind with the templates
[9]
  Binding with the CP aggregates: detectable binding

Source: US8932558B2, “Multi-subunit biological complexes for treatment of plaque-associated diseases” (Plaxgen Inc, priority 2007, dated 2015)
